# Results as given in patent US20060229236A1, “Cyclic tetrapeptide compound and use thereof” (FUJISAWA PHARMACEUTICAL Co. LTD., priority 2001, published 2006).
# Square brackets hold non-standard residues; d marks the D form. Peptide text beside a SMILES is read from it. Aoda(9S-OH) = C[C@H](O)C(=O)CCCCC[C@H](N)C(=O)O; Phe(4-CN) = N#Cc1ccc(C[C@H](N)C(=O)O)cc1; Iva = CC[C@](C)(N)C(=O)O
# Legend:
# [1] = biological target: T1, human histone deacetylase; assay: Test 1: Determination of histone deacetylase inhibitor activity; format: biochemical; conditions: partially purified human histone deacetylase from Jurkat cells; [3H] acetyl-labeled histones; 25° C., 30 minutes; read-out: Test 1: HDAC inhibitory activity IC50
# T1 construct: The human histone deacetylase was partially purified from human T cell leukemia Jurkat cells
# Protocol: Test 1: Determination of Histone Deacetylase Inhibitor Activity
# The partial purification of human histone deacetylase, the preparation of [^3H] acetyl histones, and the assay for histone deacetylase activity were performed basically according to the method as proposed by Yoshida et al. as follows.
# Partial Purification of Human Histone Deacetylase
# The human histone deacetylase was partially purified from human T cell leukemia Jurkat cells. Jurkat cells (5×10^8 cells) were suspended in 40 ml of the HDA buffer consisting of 15 mM potassium phosphate, pH 7.5, 5% glycerol and 0.2 mM EDTA. After homogenization, nuclei were collected by centrifugation (35,000×g, 10 min) and homogenized in 20 ml of the same buffer supplemented with 1 M (NH4)2SO4. The viscous homogenate was sonicated and clarified by centrifugation (35,000×g, 10 min), and the deacetylase was precipitated by raising the concentration of (NH4)2SO4 to 3.5 M. The precipitated protein was dissolved in 10 ml of the HDA buffer and dialyzed against 4 liters of the same buffer. The dialyzate was then loaded onto a DEAE-cellulose (Whatman DE52) column (25×85 mm) equilibrated with the same buffer and eluted with 300 ml of a linear gradient (0-0.6 M) of NaCl. A single peak of histone deacetylase activity appeared between 0.3 and 0.4 M NaCl.
# Preparation of [^3H] Acetyl Histone
# To obtain [^3H] acetyl-labeled histone as the substrate for the histone deacetylase assay, 1×10^8 cells of Jurkat in 20 ml of RPMI-1640 medium (supplemented with 10% FBS, penicillin (50 units/ml) and streptomycin (50 μg/ml)) were incubated with 300 MBq [^3H] sodium acetate in the presence of 5 mM sodium butyrate for 30 minutes in 5% CO2-95% air atmosphere at 37° C. in a 75 cm^2 flask, harvested into a centrifuge tube (50 ml), collected by centrifugation at 1000 rpm for 10 minutes, and washed once with phosphate-buffered saline. The washed cells were suspended in 15 ml of ice-cold lysis buffer (10 mM Tris-HCl, 50 mM sodium bisulfite, 1% Triton X-100, 10 mM MgCl2, 8.6% sucrose, pH 6.5). After Dounce homogenization (30 stroke), the nuclei were collected by centrifugation at 1000 rpm for 10 minutes, washed 3 times with 15 ml of the lysis buffer, and once with 15 ml of ice-cooled washing buffer (10 mM Tris-HCl, 13 mM EDTA, pH 7.4) successively. The pellet was suspended in 6 ml of ice-cooled water using a mixer, and 68 μl of H2SO4 was added to the suspension to give a concentration of 0.4 N. After incubation at 4° C. for 1 hour, the suspension was centrifuged for 5 minutes at 15,000 rpm, and the supernatant was taken and mixed with 60 ml of acetone. After overnight incubation at −20° C., the coagulated material was collected by microcentrifugation, air-dried, and stored at −80° C.
# Assay for Histone Deacetylase Activity
# For the standard assay, 10 μl of [^3H] acetyl-labeled histones were added to 90 μl of the enzyme fraction, and the mixture was incubated at 25° C. for 30 minutes. The reaction was stopped by addition of 10 μl of HCl. The released [^3H] acetic acid was extracted with 1 ml of ethyl acetate, and 0.9 ml of the solvent layer was taken into 10 ml of toluene scintillation solution for determination of radioactivity.
# [2] = tested on: splenic cells of Lewis rats; assay: Test 2: Determination of T-cell growth inhibitor activity (T lymphocyte blastogenesis test); format: cell-based; conditions: Lewis rat splenic cells, Concanavalin A (1 μg/ml), 72 hours, AlamarBlue Assay, read-out: Test 2: T-cell growth inhibitory activity IC50
# Protocol: Test 2: Determination of T-Cell Growth Inhibitor Activity
# The T lymphocyte blastogenesis test was performed in microtiter plates with each well containing 1.5×10^5 splenic cells of Lewis rats in 0.1 ml RPMI-1640 medium supplemented with 10% fetal bovine serum (FBS), […] 2-mercaptoethanol, penicilln (100 units/ml) and streptomycin (100 μg/ml), to which Concanavalin A (1 μg/ml) was added. The cells were incubated at 37° C. in a humidified atmosphere of 5% CO2 for 72 hours. After the culture period, suppressive activities of the test compounds in T lymphocyte blastogenesis were quantified by AlamarBlue (trademark) Assay. The test samples were dissolved in DMSO and further diluted with RPMI-1640 medium and added to the culture. The activities of the test compounds were expressed as IC50.
# [3] = tested on: TNFα induced NF-κB activation; assay: Test 3: NF-κB reporter gene assay in TNFα-stimulated HEL cells; format: cell-based; conditions: HEL cells transfected with pNFκB-TA-Luc, TNFα (10 ng/ml); at doses up to 3 nM; FIG. 2
# Protocol: Test 3: Effect of HDAC Inhibitor on TNFα Induced NF-κB Activation 8.75×10^6 HEL cells (JCRB0062, JCRB) were transfected with 10 μg of pNFκB-TA-Luc (Clontech, as shown in FIG. 1) by electroporation at 1750 V and 10 μF with Gene Pulser II (BIO-RAD). The cells were resuspended in 2 ml of RPMI1640 (SIGMA) supplemented with 10% FBS (MOREGATE) and aliquated 50 μl each well in 96-well tissue culture plates. After 5 hr culture at 37° C., 5% CO2, for cell function recovery, the cells were cultured in the presence or absence of TNFα (10 ng/ml) for 4 hr. TNFα stimulated cells were incubated with Compound E138 or FK506 (commercial available immunosuppresive agent, also referred as Tacrolimus) at appropriate concentrations for 1 hour prior to stimulation. For the NF-κB reporter gene assay, the transfected cells were lysed and assayed for luciferase activity with the Bright-glo Luciferase Assay System (Promega) according to the manufacturer's instructions.
# [4] = tested on: MCP-1 production by activated THP-1 cells; assay: Test 4: MCP-1 production by activated THP-1 cells (MCP-1 ELISA); format: cell-based, human; conditions: PMA 50 ng/mL 16 hours, compound 9 hr, at doses up to 1 nM, FIG. 3
# Protocol: Test 4: Effect of HDAC Inhibitor on MCP-1 Production by Activated THP-1 Cells For the measurement of MCP-1 level by ELISA, 1×10^6 THP-1 cells (JCRB0112, JCRB) were plated in 6-well tissue culture plates. The cells were cultured in RPMI1640 (SIGMA) supplemented with 10% FBS (MOREGATE) in the presence of PMA (SIGMA, 50 ng/mL) for 16 hours at 37° C., 5% CO2. After incubation, the medium was changed to RPMI1640 supplemented with 2% FBS and various concentrations of Compound E138 or FK506 were added. The cells were further cultured for 9 hr and the amount of MCP-1 protein secreted by activated THP-1 cells into the medium was determined by […] Immuno assay System human MCP-1 (Genzyme Techne) according to the manufacturer's instructions.
# [5] = tested on: IL-2 mRNA expression in activated Jurkat cells; assay: IL-2 mRNA expression in activated Jurkat cells; format: cell-based, human; conditions: at 1 nM
IC50 [1] [nM],SMILES,IC50 [2] [nM],effect on TNFα induced NF-κB activation [3],effect on MCP-1 production by activated THP-1 cells [4],inhibition of IL-2 mRNA expression [5]
< 100,CC[C@@H](O)C(=O)CCCCC[C@@H]1NC(=O)[C@H]2CCCN2C(=O)[C@H](Cc2ccccc2F)NC(=O)[C@](C)(CC)NC1=O [Compound E35],< 50,–,–,–
< 100,CCC1(CC)NC(=O)[C@H](CCCCCC(=O)[C@@H](C)O)NC(=O)[C@H]2CCCN2C(=O)[C@H](Cc2ccccc2)NC1=O [Compound E41],< 50,–,–,–
< 100,CC[C@]1(C)NC(=O)[C@H](CCCCCC(=O)[C@H](C)O)NC(=O)[C@H]2CCCN2C(=O)[C@H](Cc2ccc(C#N)cc2)NC1=O [Compound E23] (cyclo([Iva][Phe(4-CN)][dP][Aoda(9S-OH)])),< 50,–,–,–
< 100,CC[C@]1(C)NC(=O)[C@H](CCCCCC(=O)[C@@H](C)O)NC(=O)[C@H]2CCCN2C(=O)[C@H](Cc2ccc(O)cc2)NC1=O [Compound E8],< 50,–,–,–
< 100,CCOc1ccc(C[C@@H]2NC(=O)[C@](C)(CC)NC(=O)[C@H](CCCCCC(=O)[C@@H](C)O)NC(=O)[C@H]3CCCN3C2=O)cc1 [Compound E26],< 50,–,–,–
< 100,CC[C@]1(C)NC(=O)[C@H](CCCCCC(=O)[C@@H](C)O)NC(=O)[C@H]2CCCN2C(=O)[C@H](Cc2ccccc2F)NC1=O [Compound E33],< 50,–,–,–

# Further lines, the compound ahead of its results:
SMILES,IC50 [1] [nM],IC50 [2] [nM],effect on TNFα induced NF-κB activation [3],effect on MCP-1 production by activated THP-1 cells [4],inhibition of IL-2 mRNA expression [5]
CC[C@@H](O)C(=O)/C=C/CCC[C@@H]1NC(=O)[C@H]2CCCN2C(=O)[C@H](Cc2ccccc2)NC(=O)[C@](C)(CC)NC1=O [Compound E48],< 100,< 50,–,–,–
"C=CC[C@@H]1/C=C(\C)C[C@H](C)C[C@H](OC)[C@H]2O[C@@](O)(C(=O)C(=O)N3CCCC[C@H]3C(=O)O[C@H](/C(C)=C/[C@@H]3CC[C@@H](O)[C@H](OC)C3)[C@H](C)[C@@H](O)CC1=O)[C@H](C)C[C@@H]2OC [FK506, Tacrolimus]",–,–,no direct effect,no direct effect,almost completely inhibits
CC[C@]1(C)NC(=O)[C@H](CCCCCC(=O)[C@@H](C)O)NC(=O)[C@H]2CCCN2C(=O)[C@H](Cc2ccc(OC)cc2)NC1=O [Compound E13],< 100,< 50,–,–,–
CC[C@]1(C)NC(=O)[C@H](CCCCCC(=O)[C@@H](C)O)NC(=O)[C@H]2CCCN2C(=O)[C@H](Cc2ccc(OCc3ccccc3)cc2)NC1=O [Compound E6],< 100,< 50,–,–,–
CC[C@]1(C)NC(=O)[C@H](CCCCCC(=O)[C@@H](C)O)NC(=O)[C@H]2CCCN2C(=O)[C@H](Cc2ccc(F)cc2)NC1=O [Compound E17],< 100,< 50,–,–,–
CC[C@]1(C)NC(=O)[C@H](CCCCCC(=O)[C@@H](C)O)NC(=O)[C@H]2CCCN2C(=O)[C@H](Cc2ccc(Cl)cc2)NC1=O [Compound E38],< 100,< 50,–,–,–
